The test system of the data set is GENE-TOX genotoxicity assays, various organisms and cells. Description: GENE-TOX mutagenicity studies. As to conditions: for call: Assay Type: In vivo carcinogenicity studies. An excerpt:
GENE-TOX provides genetic toxicology (mutagenicity) test data from expert peer review of open scientific literature for more than 3,000 chemicals from the United States Environmental Protection Agency (EPA). GENE-TOX was established to select assay systems for evaluation, review data in the scientific literature, and recommend proper testing protocols and evaluation procedures for these systems.
GENE-TOX covers the years 1991 - 1998. It is no longer updated.
This is an archive assay for GENE-TOX mutagenicity studies.

The mark [1] stands for this setting: Species/Cell Type: Nonhuman, Assay Type: Sister-chromatid exchange (SCE) in vitro, Assay Code: SC2-, Evaluation Type: Evaluation B (Post-1980).
The mark [2] stands for this setting: Species/Cell Type: Saccharomyces cerevisiae, Assay Type: Mitotic recombination or gene conversion, Assay Code: YEH+, Evaluation Type: Evaluation A (Pre-1980).
The mark [3] stands for this setting: Species/Cell Type: Nonhuman, Assay Type: Sister-chromatid exchange (SCE) in vitro, Assay Code: SC2+D, Dose Response: With dose response, Evaluation Type: Evaluation B (Post-1980).
The mark [4] stands for this setting: Species/Cell Type: Nonhuman, Assay Code: CCGT, Evaluation Type: Evaluation A (Pre-1980).
Where [5] appears, read: Species/Cell Type: Salmonella typhimurium (one or more of the five standard strains: TA98, TA100, TA1535, TA1537, and TA1538), Assay Type: Histidine reverse gene mutation, Ames assay, Assay Code: SAL+, Evaluation Type: Evaluation A (Pre-1980).
Setting [6] is: Species/Cell Type: Salmonella typhimurium (one or more of the five standard strains: TA98, TA100, TA1535, TA1537, and TA1538), Assay Type: Histidine reverse gene mutation, Ames assay, Assay Code: SAL+*, Activation: With metabolic activation, Evaluation Type: Evaluation A (Pre-1980).
Where [7] appears, read: Species/Cell Type: Drosophila melanogaster, Assay Type: Sex-linked recessive lethal gene mutation, Assay Code: SRL+, Evaluation Type: Evaluation A (Pre-1980).
[8] abbreviates: Species/Cell Type: Nonhuman, Assay Code: CCG+, Evaluation Type: Evaluation A (Pre-1980).
Setting [9] is: Species/Cell Type: Escherichia coli polA (W3110 vs P3478), Assay Type: Rec-assay, DNA effects (bacterial DNA repair), Assay Code: RE2-, Evaluation Type: Evaluation A (Pre-1980).
Setting [10] is: Species/Cell Type: Saccharomyces cerevisiae, Assay Type: Mitotic recombination or gene conversion, Assay Code: YEH-, Evaluation Type: Evaluation A (Pre-1980).

The source made the active and inactive calls. The rule behind the calls is not given here.

Consider `O=[N+]([O-])c1ccc(F)c([N+](=O)[O-])c1`, for which the mutagenic call reads like this: (Species/Cell Type: Escherichia coli polA (W3119 vs P3478), Assay Type: Rec-assay, DNA effects (bacterial DNA repair), Assay Code: RE1+, Evaluation Type: Evaluation A (Pre-1980)) “active; positive”; under setting [1], “inactive; negative”; (Species/Cell Type: Saccharomyces cerevisiae, Assay Type: Forward gene mutation, Assay Code: YEF+, Evaluation Type: Evaluation A (Pre-1980)) “active; positive”; (Species/Cell Type: Saccharomyces cerevisiae, Assay Type: Mitotic recombination or gene conversion, Assay Code: YEC+, Evaluation Type: Evaluation A (Pre-1980)) “active; positive”; under setting [2], “active; positive”.

Regarding `Cc1cc(Cl)cc2c1C(=O)/C(=C1\Sc3cc(Cl)cc(C)c3C1=O)S2`, the mutagenic call (Species/Cell Type: Salmonella typhimurium (one or more of the five standard strains: TA98, TA100, TA1535, TA1537, and TA1538), Assay Type: Histidine reverse gene mutation, Ames assay, Assay Code: SAL-, Evaluation Type: Evaluation A (Pre-1980)) was “inactive; negative”.

On to `COCCOC1=C(N2CC2)C(=O)C(OCCOC)=C(N2CC2)C1=O`, for which the mutagenic call by setting is: (Species/Cell Type: Drosophila melanogaster, Assay Type: Sex-linked recessive lethal gene mutation, Assay Code: SRLT, Evaluation Type: Evaluation A (Pre-1980)) “no conclusion”; under setting [3], “active; positive”.

Regarding `c1ccc2c(c1)cc1c3c2ccc2cccc(c23)C2OC12` (configuration not stated), the mutagenic call (Species/Cell Type: Chinese hamster lung (V79) cells, Assay Type: Forward gene mutation at the HPRT or ouabain locus, Assay Code: V79+, Evaluation Type: Evaluation A (Pre-1980)) was “active; positive”; the mutagenic call (Species/Cell Type: Human diploid fibroblasts, Assay Type: Unscheduled DNA synthesis (UDS) in vitro, DNA effects, Assay Code: UDH+, Evaluation Type: Evaluation A (Pre-1980)) was “active; positive”; the mutagenic call (Species/Cell Type: Human, Assay Type: Sister-chromatid exchange (SCE) in vitro, Assay Code: SC1+D, Dose Response: With dose response, Evaluation Type: Evaluation B (Post-1980)) was “active; positive”; the mutagenic call (Species/Cell Type: Mouse prostate cells, Assay Type: Cell transformation, Assay Code: CTM+, Evaluation Type: Evaluation A (Pre-1980)) is “active; positive”; the mutagenic call under setting [3] is “active; positive”; the mutagenic call under setting [2] was “active; positive”. Further, the mutagenic call is, setting by setting: under setting [5], “active; positive”; (Species/Cell Type: Syrian hamster embryo (SHE) cells, Assay Type: Cell transformation, clonal assay, Assay Code: CTC+, Evaluation Type: Evaluation A (Pre-1980)) “active; positive”. Moreover, under setting [4], the call is reported as “no conclusion”.

`Oc1ccc2cc3ccc4cccc5ccc(c2c1)c3c45`: the mutagenic call (Species/Cell Type: Chinese hamster lung (V79) cells, Assay Type: Forward gene mutation at the HPRT or ouabain locus, Assay Code: V79+/-*, Activation: With metabolic activation, Evaluation Type: Evaluation A (Pre-1980)) is “inactive; positive without activation, negative with activation” and the mutagenic call under setting [6] is “active; positive”. Further, the call under setting [4] is listed as “no conclusion”.

For `CC1CN1P(=O)(N1CC1C)N1CC1C` (configuration not stated), the mutagenic call under setting [7] is “active; positive”; the mutagenic call (Species/Cell Type: F1 mouse, Sex: Male, Assay Type: Sperm morphology, Assay Code: SPFT, Evaluation Type: Evaluation A (Pre-1980)) is “no conclusion”; the mutagenic call (Species/Cell Type: Hordeum vulgare (barley), Assay Type: Chromosome aberrations, Assay Code: HOC+, Evaluation Type: Evaluation A (Pre-1980)) was “active; positive”; the mutagenic call (Species/Cell Type: Mammalian polychromatic erythrocytes, Assay Type: Micronucleus test, chromosome aberrations, Assay Code: MNT+, Evaluation Type: Evaluation A (Pre-1980)) is “active; positive”; the mutagenic call (Species/Cell Type: Mouse, Sex: Male, Assay Type: Sperm morphology, Assay Code: SPI+, Evaluation Type: Evaluation A (Pre-1980)) is “active; positive”; the mutagenic call (Species/Cell Type: Neurospora crassa, Assay Type: Forward gene mutation, Assay Code: NEF+, Evaluation Type: Evaluation A (Pre-1980)) is “active; positive”. The mutagenic call runs as follows: (Species/Cell Type: Nonhuman bone marrow, Assay Type: Chromosome aberrations, in vivo, Assay Code: CY#+, Evaluation Type: Evaluation A (Pre-1980)) “active; positive”; (Species/Cell Type: Rodents, Sex: Male, Assay Type: Dominant lethal test, Assay Code: DLT+, Evaluation Type: Evaluation A (Pre-1980)) “active; positive”; (Species/Cell Type: Vicia faba, Assay Type: Chromosome aberrations, Assay Code: VIC+D, Dose Response: With dose response, Evaluation Type: Evaluation A (Pre-1980)) “active; positive”. The call under setting [4] is listed as “no conclusion”.

Take `[Cl][Pt]([Cl])([Cl])[Cl]`: the mutagenic call was “active; positive” (Species/Cell Type: Bacillus subtilis (H17 vs M45), Assay Type: Rec-assay, spot test, DNA effects (bacterial DNA repair), Assay Code: REW+, Evaluation Type: Evaluation A (Pre-1980)) and “active; positive” under setting [7].

Turning to `C=CCOC(=O)CC(C)C`, the call under setting [8] was “active; positive”.

Take `BrCC1CO1` (configuration not stated): for the setting “Species/Cell Type: Neurospora crassa, Assay Type: Reverse gene mutation, Assay Code: NER+, Evaluation Type: Evaluation A (Pre-1980)”, the mutagenic call is “active; positive”.

In the case of `NC1C(O)[C@@H](O)C(CO)O[C@@H]1O` (some centres not stated), under “Species/Cell Type: Escherichia coli WP2, Assay Type: Tryptophan reverse gene mutation, Assay Code: WP2-, Evaluation Type: Evaluation A (Pre-1980)”, the mutagenic call was “inactive; negative”.

As to `Cc1ccc2c(ccc3cc4ccccc4cc32)c1`, the mutagenic call reads like this: under setting [1], “inactive; negative”; under setting [6], “active; positive”.

Regarding `O=[N+]([O-])c1cccc2ccccc12`, the call (Species/Cell Type: Nonhuman, Assay Code: CCG-, Evaluation Type: Evaluation A (Pre-1980)) was “inactive; negative”.

For `Cc1c2ccccc2cc2ccc3ccccc3c12`, the mutagenic call reads like this: under setting [3], “active; positive”; under setting [6], “active; positive”.

Turning to `CC(S)C(=O)NCC(=O)O` (configuration not stated), the mutagenic call (Species/Cell Type: Mammalian polychromatic erythrocytes, Assay Type: Micronucleus test, chromosome aberrations, Assay Code: MNTT, Evaluation Type: Evaluation B (Post-1980)) is “no conclusion”.

In the case of `Cc1ccc(N)cc1`, the mutagenic call under setting [9] is “inactive; negative”; the mutagenic call (Species/Cell Type: Escherichia coli polA (W3119 vs P3478), Assay Type: Rec-assay, DNA effects (bacterial DNA repair), Assay Code: RE1-, Evaluation Type: Evaluation A (Pre-1980)) is “inactive; negative”; the mutagenic call (Species/Cell Type: Saccharomyces cerevisiae, Assay Type: Mitotic recombination or gene conversion, Assay Code: YEH+*, Activation: With metabolic activation, Evaluation Type: Evaluation A (Pre-1980)) was “active; positive”; the mutagenic call under setting [10] is “inactive; negative”.

In the case of `O=[N+]([O-])c1nccn1CC(O)CF` (configuration not stated), under setting [5], the mutagenic call was “active; positive”.

On to `[S]=[Cd]`, for which the mutagenic call (Species/Cell Type: Human lymphocytes or leukocytes, Assay Type: Chromosome aberrations in vitro, Assay Code: CY7+, Evaluation Type: Evaluation A (Pre-1980)) is “active; positive”. Moreover, the call under setting [8] was “active; positive”.

`NC(=O)N/N=C/c1ccco1`: for the setting “Species/Cell Type: Escherichia coli WP2 UVRA, Assay Type: Tryptophan reverse gene mutation, Assay Code: WPU-, Evaluation Type: Evaluation A (Pre-1980)”, the mutagenic call is “inactive; negative”.

As to `CC(=O)Nc1cccc2c1-c1ccccc1C2`, the mutagenic call reads like this: under setting [9], “inactive; negative”; (Species/Cell Type: Escherichia coli polA (W3119 vs P3478), Assay Type: Rec-assay, DNA effects (bacterial DNA repair), Assay Code: RE1T, Evaluation Type: Evaluation A (Pre-1980)) “no conclusion”; (Species/Cell Type: Fischer rat embryo (RLV/1706) cells, Assay Type: Cell transformation, viral enhanced, Assay Code: CTR+, Evaluation Type: Evaluation A (Pre-1980)) “active; positive”; (Species/Cell Type: Mammalian polychromatic erythrocytes, Assay Type: Micronucleus test, chromosome aberrations, Assay Code: MNTT, Evaluation Type: Evaluation A (Pre-1980)) “no conclusion”; (Species/Cell Type: Mouse (BALB/c-3T3) cells, Assay Type: Cell transformation, Assay Code: CTB+D, Dose Response: With dose response, Evaluation Type: Evaluation A (Pre-1980)) “active; positive”; (Species/Cell Type: Mouse lymphoma (L5178Y) cells, Assay Type: Forward gene mutation at the thymidine kinase (TK) locus, chromosome aberrations, Assay Code: L51+*, Activation: With metabolic activation, Evaluation Type: Evaluation A (Pre-1980)) “active; positive”. The mutagenic call (Species/Cell Type: Nonhuman, Assay Type: Sister-chromatid exchange (SCE) in vitro, Assay Code: SC2T, Evaluation Type: Evaluation B (Post-1980)) is listed as “no conclusion”; the mutagenic call (Species/Cell Type: Rat primary hepatocytes, Assay Type: Unscheduled DNA synthesis (UDS) in vitro, DNA effects, Assay Code: UDP-, Evaluation Type: Evaluation A (Pre-1980)) is “inactive; negative”; the mutagenic call under setting [10] is “inactive; negative”; the mutagenic call under setting [6] was “active; positive”; the mutagenic call (Species/Cell Type: Salmonella typhimurium, Assay Type: Forward and reverse gene mutation, host-mediated assay, Assay Code: HMA-, Evaluation Type: Evaluation A (Pre-1980)) is “inactive; negative”; the mutagenic call (Species/Cell Type: Syrian hamster embryo (SHE) cells, Assay Type: Cell transformation, clonal assay, Assay Code: CTC-, Evaluation Type: Evaluation A (Pre-1980)) was “inactive; negative”. Also, the call under setting [4] is given as “no conclusion”.

For the origin of these results see PubChem BioAssay AID1259408 (Genetic Toxicology Data Bank (GENE-TOX), 2018).
